# Data published in patent publication US8785457B2 (Cellzome Limited, priority 2009, dated 2014).
# pIC50: −log10 of the molar value. Read-outs that look alike come from different tables or passages of the source.
# Tests used:
# Format in all cases: binding
# [1] = biological target: T1, DNA-dependent protein kinase (DNA-PK) (Homo sapiens, UniProt P78527); assay: kinobeads assay, DNA-PK
# T1 construct: endogenous in cells; host or cells: Jurkat, clone E6-1 (ATCC TIB-152) cell lysate
# How it was run: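 Competitive binding in Jurkat cell lysate (5 mg/ml total protein): test compounds at various concentrations competed with beads bearing immobilized phenylmorpholin-chromen ligand. Bead-bound kinases were eluted and quantified by antibody dot blot with infrared detection; IC50 values came from dose-response curves.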
# [2] = biological target: T2, PI3Kalpha (PI3Ka) (Homo sapiens, UniProt P42336); assay: kinobeads assay, PI3Kalpha
# T2 construct: endogenous in cells; host or cells: cell lysate
# How it was run: (§1)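 Read-out is multiplexed immunodetection of kinase eluted from phenylmorpholin-chromen ligand beads after their incubation in cell lysate with test compound at various concentrations. Reduced capture reflects competition, and per-kinase dose-response curves yield IC50.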
# [3] = biological target: T3, PI3 Kbeta (PI3 Kb) (Homo sapiens, UniProt P42338); assay: kinobeads assay, PI3Kbeta
# T3 construct: endogenous in cells; host or cells: cell lysate
# How it was run: as §1
# [4] = biological target: T4, PI3 Kgamma (PI3 Kg) (Homo sapiens, UniProt P48736); assay: kinobeads assay, PI3Kgamma
# T4 construct: endogenous in cells; host or cells: cell lysate
# How it was run: as §1
# [5] = kinobeads assay, Table 4, read-out: Inhibition values (IC50) DNA-PK
# [6] = kinobeads assay, Table 6, read-out: Inhibition values (IC50) DNAPK
# [7] = kinobeads assay, Table 6, read-out: Inhibition values (IC50) PI3Kb
# [8] = kinobeads assay, Table 6, read-out: Inhibition values (IC50) PI3Kg
# [9] = Further Kinobeads Data, read-out: DNAPK
# [10] = Further Kinobeads Data, read-out: PI3Ka
# [11] = Further Kinobeads Data, read-out: PI3Kb
# [12] = Further Kinobeads Data, read-out: PI3Kg
# [13] = kinobeads assay, Table 6, read-out: Inhibition values (IC50) PI3Ka
# T1 sequence (P78527 whole entry): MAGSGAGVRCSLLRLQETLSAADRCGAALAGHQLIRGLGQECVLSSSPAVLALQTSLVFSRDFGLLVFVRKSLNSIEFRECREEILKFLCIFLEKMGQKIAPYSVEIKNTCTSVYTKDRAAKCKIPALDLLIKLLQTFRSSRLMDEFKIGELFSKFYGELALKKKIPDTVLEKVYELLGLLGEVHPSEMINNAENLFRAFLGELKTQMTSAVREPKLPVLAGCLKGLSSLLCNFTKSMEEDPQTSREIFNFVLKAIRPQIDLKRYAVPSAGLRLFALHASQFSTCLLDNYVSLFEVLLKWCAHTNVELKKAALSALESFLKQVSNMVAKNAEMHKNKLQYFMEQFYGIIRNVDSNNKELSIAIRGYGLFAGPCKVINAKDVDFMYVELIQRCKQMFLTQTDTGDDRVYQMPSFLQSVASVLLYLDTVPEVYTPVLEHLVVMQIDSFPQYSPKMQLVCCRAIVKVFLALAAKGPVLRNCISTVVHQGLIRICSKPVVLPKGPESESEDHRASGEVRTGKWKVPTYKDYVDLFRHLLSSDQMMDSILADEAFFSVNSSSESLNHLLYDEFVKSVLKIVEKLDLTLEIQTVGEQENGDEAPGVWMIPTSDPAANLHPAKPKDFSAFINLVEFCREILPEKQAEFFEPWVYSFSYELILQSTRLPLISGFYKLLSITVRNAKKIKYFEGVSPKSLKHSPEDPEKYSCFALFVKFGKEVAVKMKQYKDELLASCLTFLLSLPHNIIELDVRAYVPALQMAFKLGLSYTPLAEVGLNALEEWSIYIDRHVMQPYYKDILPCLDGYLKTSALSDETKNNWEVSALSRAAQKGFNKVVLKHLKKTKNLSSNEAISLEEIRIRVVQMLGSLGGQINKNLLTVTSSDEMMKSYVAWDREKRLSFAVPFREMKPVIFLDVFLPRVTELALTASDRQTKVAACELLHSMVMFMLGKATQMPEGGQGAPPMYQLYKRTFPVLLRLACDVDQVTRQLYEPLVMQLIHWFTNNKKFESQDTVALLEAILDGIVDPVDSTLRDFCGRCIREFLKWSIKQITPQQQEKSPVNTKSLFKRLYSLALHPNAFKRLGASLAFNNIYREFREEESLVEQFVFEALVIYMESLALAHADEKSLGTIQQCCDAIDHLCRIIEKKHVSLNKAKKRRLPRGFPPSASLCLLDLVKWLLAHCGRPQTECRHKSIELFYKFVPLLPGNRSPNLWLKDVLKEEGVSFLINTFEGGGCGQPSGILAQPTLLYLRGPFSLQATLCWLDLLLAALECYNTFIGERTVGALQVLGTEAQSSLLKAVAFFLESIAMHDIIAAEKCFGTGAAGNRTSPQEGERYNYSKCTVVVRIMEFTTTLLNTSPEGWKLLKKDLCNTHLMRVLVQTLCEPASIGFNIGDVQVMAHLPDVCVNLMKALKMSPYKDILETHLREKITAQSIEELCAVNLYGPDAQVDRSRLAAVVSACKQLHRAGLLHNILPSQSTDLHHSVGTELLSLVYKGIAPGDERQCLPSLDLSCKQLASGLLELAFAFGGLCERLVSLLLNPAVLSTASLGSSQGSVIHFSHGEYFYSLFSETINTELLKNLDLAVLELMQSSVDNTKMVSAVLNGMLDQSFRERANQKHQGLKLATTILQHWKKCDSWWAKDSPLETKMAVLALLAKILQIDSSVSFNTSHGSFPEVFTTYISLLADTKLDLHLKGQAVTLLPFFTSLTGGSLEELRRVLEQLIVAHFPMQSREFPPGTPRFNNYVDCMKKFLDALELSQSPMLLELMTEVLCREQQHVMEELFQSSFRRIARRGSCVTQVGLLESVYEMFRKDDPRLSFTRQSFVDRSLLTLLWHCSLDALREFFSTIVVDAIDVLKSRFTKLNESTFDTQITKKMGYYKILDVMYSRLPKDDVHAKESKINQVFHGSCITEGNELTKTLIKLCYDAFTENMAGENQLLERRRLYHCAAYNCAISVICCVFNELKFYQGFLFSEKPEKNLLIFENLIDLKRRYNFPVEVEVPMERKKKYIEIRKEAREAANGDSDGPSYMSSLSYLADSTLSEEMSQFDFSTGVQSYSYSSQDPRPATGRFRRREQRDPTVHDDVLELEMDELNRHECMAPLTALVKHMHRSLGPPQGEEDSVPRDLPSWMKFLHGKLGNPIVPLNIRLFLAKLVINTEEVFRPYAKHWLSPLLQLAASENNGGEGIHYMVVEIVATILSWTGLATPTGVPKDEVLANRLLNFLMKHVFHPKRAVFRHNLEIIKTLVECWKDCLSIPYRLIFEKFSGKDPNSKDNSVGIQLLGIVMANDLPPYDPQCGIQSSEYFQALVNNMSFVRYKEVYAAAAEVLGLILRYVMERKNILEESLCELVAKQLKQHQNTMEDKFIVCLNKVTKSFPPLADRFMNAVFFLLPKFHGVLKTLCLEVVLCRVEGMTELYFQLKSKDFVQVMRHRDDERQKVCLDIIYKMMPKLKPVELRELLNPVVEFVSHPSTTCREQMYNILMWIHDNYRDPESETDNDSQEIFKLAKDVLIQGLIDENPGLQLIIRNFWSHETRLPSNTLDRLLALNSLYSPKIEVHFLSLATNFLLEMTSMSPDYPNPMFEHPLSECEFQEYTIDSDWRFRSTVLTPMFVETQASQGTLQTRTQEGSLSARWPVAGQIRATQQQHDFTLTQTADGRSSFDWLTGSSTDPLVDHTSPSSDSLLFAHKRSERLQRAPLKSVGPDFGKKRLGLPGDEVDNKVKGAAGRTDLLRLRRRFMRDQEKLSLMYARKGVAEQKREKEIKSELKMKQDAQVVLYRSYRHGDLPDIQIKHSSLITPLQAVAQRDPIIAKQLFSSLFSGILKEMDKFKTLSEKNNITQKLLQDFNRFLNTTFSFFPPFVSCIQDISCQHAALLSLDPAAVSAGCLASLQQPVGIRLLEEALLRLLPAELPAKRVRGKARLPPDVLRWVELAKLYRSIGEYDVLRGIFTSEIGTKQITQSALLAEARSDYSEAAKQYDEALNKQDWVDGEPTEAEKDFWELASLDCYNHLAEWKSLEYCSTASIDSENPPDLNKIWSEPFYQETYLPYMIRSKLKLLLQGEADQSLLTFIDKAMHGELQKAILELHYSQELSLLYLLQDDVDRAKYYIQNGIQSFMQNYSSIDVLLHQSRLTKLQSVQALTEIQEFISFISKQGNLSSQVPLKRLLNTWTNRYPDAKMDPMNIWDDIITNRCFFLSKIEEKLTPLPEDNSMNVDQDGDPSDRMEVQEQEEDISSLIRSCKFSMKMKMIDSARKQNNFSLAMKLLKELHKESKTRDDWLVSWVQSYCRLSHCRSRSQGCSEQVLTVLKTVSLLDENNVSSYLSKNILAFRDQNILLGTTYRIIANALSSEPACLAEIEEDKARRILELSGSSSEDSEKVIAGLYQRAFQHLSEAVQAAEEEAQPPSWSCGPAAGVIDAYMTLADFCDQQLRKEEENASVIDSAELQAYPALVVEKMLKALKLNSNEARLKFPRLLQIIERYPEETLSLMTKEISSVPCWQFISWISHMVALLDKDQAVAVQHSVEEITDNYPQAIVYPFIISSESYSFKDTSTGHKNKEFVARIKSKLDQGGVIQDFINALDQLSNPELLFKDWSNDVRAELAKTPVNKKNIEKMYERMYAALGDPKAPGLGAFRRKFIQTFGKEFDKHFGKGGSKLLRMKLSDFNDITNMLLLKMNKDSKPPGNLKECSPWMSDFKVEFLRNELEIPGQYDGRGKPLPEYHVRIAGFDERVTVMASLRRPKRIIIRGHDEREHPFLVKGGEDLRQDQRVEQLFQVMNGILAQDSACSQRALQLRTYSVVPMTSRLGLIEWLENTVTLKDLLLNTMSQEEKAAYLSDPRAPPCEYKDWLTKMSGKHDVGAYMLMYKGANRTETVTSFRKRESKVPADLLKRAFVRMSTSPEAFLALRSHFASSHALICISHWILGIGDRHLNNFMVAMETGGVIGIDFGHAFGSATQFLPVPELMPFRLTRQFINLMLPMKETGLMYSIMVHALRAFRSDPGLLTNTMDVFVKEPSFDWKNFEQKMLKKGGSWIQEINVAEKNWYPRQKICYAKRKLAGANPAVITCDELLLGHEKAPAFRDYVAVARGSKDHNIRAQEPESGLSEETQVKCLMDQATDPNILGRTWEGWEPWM
Structure (SMILES),"pIC50 [1, 5]","pIC50 [1, 6]","Inhibition values (IC50) PI3Ka ([2]; kinobeads assay, Table 6)","pIC50 [3, 7]","pIC50 [4, 8]","pIC50 [1, 9]","pIC50 [2, 10]","pIC50 [3, 11]","pIC50 [4, 12]",PI3Ka ([2]; Further Kinobeads Data),"pIC50 [2, 13]"
"CC(C)CN1CCc2c(nc(-c3ccc(NC(=O)NC4CC4)cc3)nc2N2CCOC[C@@H]2C)C1 [Example 42, (S)-1-cyclopropyl-3-(4-(7-isobutyl-4-(3-methylmorpholino)-5,6,7,8-tetrahydropyrido[3,4-d]pyrimidin-2-yl)phenyl)urea]",< 5.00,< 5.00,D (D >10 μM),< 5.00,< 5.00,–,–,–,–,–,–
"CCNC(=O)Nc1ccc(-c2nc3c(c(N4CCOC[C@@H]4C)n2)CCN(C(=O)N(C)C)C3)c(F)c1 [Example 176, (S)-2-(4-(3-ethylureido)-2-fluorophenyl)-N,N-dimethyl-4-(3-methylmorpholino)-5,6-dihydropyrido[3,4-d]pyrimidine-7(8H)-carboxamide]",–,–,–,–,–,5.00 to 6.00,5.00 to 6.00,5.00 to 6.00,5.00 to 6.00,–,–
"CCOC(=O)N1Cc2nc(-c3ccc(NC(=O)NCCO)cc3F)nc(N3CCOCC3)c2C1 [Example 171, ethyl 2-(2-fluoro-4-(3-(2-hydroxyethyl)ureido)phenyl)-4-morpholino-5H-pyrrolo[3,4-d]pyrimidine-6(7H)-carboxylate]",–,–,–,–,–,5.00 to 6.00,–,< 5.00,< 5.00,D (D >10 μM),–
"CC(C)N1CCc2c(nc(-c3ccc(NC(=O)NC4CC4)cc3)nc2N2CCOC[C@@H]2C)C1 [Example 43, (S)-1-cyclopropyl-3-(4-(7-isopropyl-4-(3-methylmorpholino)-5,6,7,8-tetrahydropyrido[3,4-d]pyrimidin-2-yl)phenyl)urea]",< 5.00,< 5.00,–,5.00 to 6.00,5.00 to 6.00,–,–,–,–,–,5.00 to 6.00
"C[C@@H]1COCCN1c1nc(-c2ccc(NC(=O)NC3CC3)cc2F)nc2c1CN(C=O)C2 [Example 190, (R)-1-cyclopropyl-3-(3-fluoro-4-(6-formyl-4-(3-methylmorpholino)-6,7-dihydro-5H-pyrrolo[3,4-d]pyrimidin-2-yl)phenyl)urea]",–,–,–,–,–,< 5.00,–,< 5.00,< 5.00,D (D >10 μM),–
"CCOC(=O)N1Cc2nc(-c3ccc(NC(=O)NC4CC4)cc3)nc(N3CCOC[C@@H]3C)c2C1 [Example 34, (S)-ethyl 2-(4-(3-cyclopropylureido)phenyl)-4-(3-methylmorpholino)-5H-pyrrolo[3,4-d]pyrimidine-6(7H)-carboxylate]",< 5.00,< 5.00,D (D >10 μM),< 5.00,< 5.00,–,–,–,–,–,–
"C[C@H]1COCCN1c1nc(-c2ccc(NC(=O)NC3CC3)cc2F)nc2c1CCNC2 [Example 163, (S)-1-cyclopropyl-3-(3-fluoro-4-(4-(3-methylmorpholino)-5,6,7,8-tetrahydropyrido[3,4-d]pyrimidin-2-yl)phenyl)urea]",–,–,–,–,–,< 5.00,–,< 5.00,< 5.00,D (D >10 μM),–
"CC(C)N1Cc2nc(-c3ccc(NC(=O)NCCF)cc3F)nc(N3CCOCC3)c2C1 [Example 185, 1-(3-fluoro-4-(6-isopropyl-4-morpholino-6,7-dihyro-5H-pyrrolo[3,4-d]pyrimidin-2-yl)phenyl)-3-(2-fluoroethyl)urea]",–,–,–,–,–,< 5.00,5.00 to 6.00,< 5.00,< 5.00,–,–
"CCNC(=O)Nc1ccc(-c2nc3c(c(N4CCOC[C@@H]4C)n2)CN(Cc2ccc(F)cc2)C3)cc1 [Example 29, (S)-1-ethyl-3-(4-(6-(4-fluorobenzyl)-4-(3-methylmorpholino)-6,7-dihydro-5H-pyrrolo[3,4-d]pyrimidin-2-yl)phenyl)urea]",< 5.00,< 5.00,D (D >10 μM),< 5.00,< 5.00,–,–,–,–,–,–
"CCNC(=O)Nc1ccc(-c2nc3c(c(N4CCOC[C@@H]4C)n2)CCN(CC2CC2)C3)cc1 [Example 37, (S)-1-(4-(7-(cyclopropylmethyl)-4-(3-methylmorpholino)-5,6,7,8-tetrahydropyrido[3,4-d]pyrimidin-2-yl)phenyl)-3-ethylurea]",< 5.00,< 5.00,D (D >10 μM),< 5.00,< 5.00,–,–,–,–,–,–
"CCNC(=O)Nc1ccc(-c2nc3c(c(N4CCOC[C@@H]4C)n2)CN(CC2CC2)C3)cc1 [Example 28, (S)-1-(4-(6-(cyclopropylmethyl)-4-(3-methylmorpholino)-6,7-dihydro-5H-pyrrolo[3,4-d]pyrimidin-2-yl)phenyl)-3-ethylurea]",< 5.00,< 5.00,D (D >10 μM),< 5.00,< 5.00,–,–,–,–,–,–
"CCNC(=O)Nc1ccc(-c2nc3c(c(N4CCOC[C@@H]4C)n2)CCN(C(=O)C(C)C)C3)cc1 [Example 57, (S)-1-ethyl-3-(4-(7-isobutyryl-4-(3-methylmorpholino)-5,6,7,8-tetrahydropyrido[3,4-d]pyrimidin-2-yl)phenyl)urea]",< 5.00,< 5.00,D (D >10 μM),< 5.00,< 5.00,–,–,–,–,–,–
"CCNC(=O)Nc1ccc(-c2nc3c(c(N4CCOCC4)n2)CN(C(=O)OCC)C3)c(F)c1 [Example 151, Ethyl 2-(4-(3-ethylureido)-2-fluorophenyl)-4-morpholino-5H-pyrrolo[3,4-d]pyrimidine-6(7H)-carboxylate]",–,–,–,–,–,< 5.00,5.00 to 6.00,< 5.00,5.00 to 6.00,–,–
"CCNC(=O)Nc1ccc(-c2nc3c(c(N4CCOC[C@@H]4C)n2)CN(C)C3)c(F)c1 [Example 160, (S)-1-ethyl-3-(3-fluoro-4-(6-methyl-4-(3-methylmorpholino)-6,7-dihydro-5H-pyrrolo[3,4-d]pyrimidin-2-yl)phenyl)urea]",–,–,–,–,–,< 5.00,–,< 5.00,< 5.00,D (D >10 μM),–
"COC(=O)N1Cc2nc(-c3ccc(NC(=O)NC4CC4)cc3F)nc(N3CCOCC3)c2C1 [Example 173, Methyl 2-(4-(3-cyclopropylureido)-2-fluorophenyl)-4-morpholino-5H-pyrrolo[3,4-d]pyrimidine-6(7H)-carboxylate]",–,–,–,–,–,< 5.00,–,< 5.00,< 5.00,D (D >10 μM),–
"CCNC(=O)Nc1ccc(-c2nc3c(c(N4CCOC[C@@H]4C)n2)CN(C(=O)C(C)C)C3)cc1 [Example 21, (S)-1-ethyl-3-(4-(6-isobutyryl-4-(3-methylmorpholino)-6,7-dihydro-5H-pyrrolo[3,4-d]pyrimidin-2-yl)phenyl)urea]",< 5.00,< 5.00,–,< 5.00,< 5.00,–,–,–,–,–,5.00 to 6.00
"CCNC(=O)Nc1ccc(-c2nc3c(c(N4CCOC[C@@H]4C)n2)CN(C(=O)OC)C3)c(F)c1 [Example 152, (S)-methyl 2-(4-(3-ethylureido)-2-fluorophenyl)-4-(3-methylmorpholino)-5H-pyrrolo[3,4-d]pyrimidine-6-(7H)-carboxylate]",–,–,–,–,–,< 5.00,–,< 5.00,< 5.00,D (D >10 μM),–
"CC(C)NC(=O)N1CCc2c(nc(-c3ccc(NC(=O)NC4CC4)cc3F)nc2N2CCOC[C@@H]2C)C1 [Example 189, (S)-2-(4-(3-cyclopropylureido)-2-fluorophenyl)-N-isopropyl-4-(3-methylmorpholino)-5,6-dihydropyrido[3,4-d]pyrimidine-7(8H)-carboxamide]",–,–,–,–,–,< 5.00,–,< 5.00,< 5.00,D (D >10 μM),–
"C[C@@H]1COCCN1c1nc(-c2ccc(NC(=O)NC3CC3)cc2F)nc2c1CN(S(C)(=O)=O)C2 [Example 191, (R)-1-cyclopropyl-3-(3-fluoro-4-(4-(3-methylmorpholino)-6-(methylsulfonyl)-6,7-dihydro-5H-pyrrolo[3,4-d]pyrimidin-2-yl)phenyl)urea]",–,–,–,–,–,< 5.00,–,< 5.00,< 5.00,D (D >10 μM),–
"CCOC(=O)N1Cc2nc(-c3ccc(NC(=O)NCCF)cc3F)nc(N3CCOC[C@@H]3C)c2C1 [Example 168, (S)-ethyl 2-(2-fluoro-4-(3-(2-fluoroethyl)ureido)phenyl)-4-(3-methylmorpholino)-5H-pyrrolo[3,4-d]pyrimidine-6(7H)-carboxylate]",–,–,–,–,–,< 5.00,5.00 to 6.00,< 5.00,< 5.00,–,–
"COC(=O)N1Cc2nc(-c3ccc(NC(=O)NCCO)cc3F)nc(N3CCOC[C@@H]3C)c2C1 [Example 181, (S)-methyl 2-(2-fluoro-4-(3-(2-hydroxyethyl)ureido)phenyl)-4-(3-methylmorpholino)-5H-pyrrolo[3,4-d]pyrimidine-6(7H)-carboxylate]",–,–,–,–,–,5.00 to 6.00,–,< 5.00,< 5.00,D (D >10 μM),–
"CN1Cc2nc(-c3ccc(NC(=O)NC4CC4)cc3F)nc(N3CCOCC3)c2C1 [Example 159, 1-(Cyclopropyl)-3-(3-fluoro-4-(6-methyl-4-morpholino-6,7-dihydro-5H-pyrrolo[3,4-d]pyrimidin-2-yl)phenyl)urea]",–,–,–,–,–,< 5.00,5.00 to 6.00,< 5.00,< 5.00,–,–
